Laboratory results taken from patent US20260200923A1, “HETEROCYCLIC COMPOUNDS TARGETING THE NUDT5 PROTEIN” (Oxford University Innovation Limited, priority 2022, published 2026).

What was measured:
Type in all cases: cell-based
WT HAP1 cells = assay: growth of WT HAP1 cells; conditions: 72 h
Experimental: (§1) HAP1 (KBM7-derived, Horizon Discovery, C859), and HAP1 MTHFD1^KO, MTHFD1^K56R, and MTHFD1^K386E cell lines were cultured in Iscove's Modified Dulbecco's Medium (IMDM, Sigma), supplemented with 10% Fetal Bovine Serum (FBS, Sigma) and 1% Penicillin/Streptomycin (P/S, Sigma).
(§2) MTHFD1^KO cells in dialyzed FBS media were treated with a single nucleotide or folic acid metabolite for 72 hours. Cells were then stained with Hoechst, imaged, and counted using an Operetta (Perkin Elmer). For the AMPK activator studies, cells were stained with Hoechst, imaged, and counted using an Opera (Perkin Elmer). Similarly, MTHFD1^K56R cells in dialyzed FBS media were treated with adenosine for 72 hours. Cells were then stained with Hoechst, imaged, and counted using an Operetta (Perkin Elmer).

NUDT5 [1] = molecular target: T1, NUDT5 (Homo sapiens, UniProt Q9UKK9); assay: NUDT5 degradation by Western blot in HAP-1 cells; parameters: endogenous in cells
Experimental: (§3) For Western blots, proteins were separated on polyacrylamide gels with SDS running buffer (50 mM Tris, 380 mM Glycine, 7 mM SDS) and transferred to PVDF membranes. All membranes were then blocked with blocking buffer (5% w/v milk powder, BioRad) in TBST (50 mM Tris (tris(hydroxymethylaminomethane), 150 mM NaCl, 0.05% (v/v) Tween 20, adjusted to pH 7.6) Proteins were probed with antibodies against phospho-AMPK (50081S, 1:2000, Cell Signaling Technologies), AMPK (5832S, 1:2000, Cell Signaling Technologies), PML (ab179466, 1:1000, abeam), PARP8 (NBP213733, 1:1000, Novus Biologicals), ATF2/7 (82870, 1:1000, Cell Signaling Technologies), alpha-Tubulin (ab7291, 1:1000, Abeam), phospho-UBTF (ab182583, 1:1000, abeam), UBTF (HPA006385, 1:1000, Sigma), RBM38 (AV40862, 1:1000, Sigma), or NUDT5 (ab129172, 1:1000, abeam), detected by HRP (horse-radish peroxidase) conjugated donkey anti-rabbit IgG antibody (Pierce) or donkey anti-mouse antibody IgG antibody (Pierce) and visualized with Clarity ECL Western Blotting substrate (BioRad), according to provided protocol.

MTHFD1^K56R cells = assay: growth of MTHFD1^K56R cells in adenosine-containing media; conditions: 72 h
Experimental: as §1, §2

HAP-1 cells = assay: 6-thioguanine assay (CellTiter-Glo viability); conditions: 0.2 μg/ml 6-thioguanine, 72 h; HAP1 (and NB4, FIG. 11)
Experimental: NB-4 and HAP1 cells (1000 cells/well in 40 uL) were seeded onto a 384-well plate containing compounds. DMSO or 0.2 μg/ml 6-thioguanine (A4882, Sigma-Aldrich) was added into respective wells. After 72 h incubation cell viability was measured by using CellTiter-Glo 2.0 Assay (G9242, Promega). Compounds in the 384-well plates were prepared by using Echo Acoustic Dispenser.

NUDT5 [2] = molecular target: T1, NUDT5; assay: NUDT5 degradation by Western blot in HEK293 cells; parameters: endogenous in cells; host or cells: HEK293 (also CRBN knock-out HEK293 for A13)
Experimental: as §3

NUDT5-PPAT interaction = molecular target: T2, NUDT5-PPAT interaction (Homo sapiens, UniProt Q9UKK9); assay: immunoprecipitation of endogenous PPAT; conditions: HAP1 cells, 100 nM, 20 h
T2 construct: endogenous in cells; host or cells: HAP1 WT
Experimental: For detecting TH5427 interactors and the PPAT-NUDT5 interaction, protein samples were prepared using RIPA buffer containing benzonase (E1014-25KU, Sigma-Aldrich). Protein concentration was measured by DC assay (U.S. Pat. Nos. 5,000,113, 5,000,114, 5,000,115, Biorad). 30 μg protein out of each sample was separated on a SDS-page gel (3450125, Biorad) and transferred to a nitrocellulose membrane (10600014, Sigma-Aldrich) at 0.4 A for 1 h. The membranes were blocked by 5% BLOT-QuickBlocker in PBS-T at room temperature for 1 h (786-011, Bioscience) and incubated with primary antibodies at 4° C. overnight. Then, fluorophor conjugated secondary antibodies diluted 1:500 in 2×BLOT-QuickBlocker in PBS-T were added onto the membrane for 1 h at room temperature. Protein bands were visualized by a Odyssey® DLx Imaging System (Licor). The following primary antibodies were used: NUDT5 (ab129172, Abeam, 1:1000, anti-rabbit) or NUDT5 (sc-398644, 1:200, anti-mouse), β-actin (sc-69879, Santa Cruz Biotechnology, 1:200) and PPAT (15401-1-AP, Proteintech, 1:1000). The following secondary antibodies were used: Alexa Fluor 750 goat anti-mouse IgG (A21037, Life technologies) and goat anti-rabbit IgG (H+L) cross-adsorbed secondary Antibody, Alexa Fluor 647 (A21244, Life technologies).
HAP-1 WT cells were treated with 100 nM TH5427, dNUDT5 or DMSO for 20 h in a 100 mm dish. […]

[3] = test system: patient-derived fibroblast lines with MTHFD1 mutations; assay: adenosine toxicity in fibroblasts from MTHFD1 deficiency patients; conditions: patient-derived cells
Experimental: Patient-derived fibroblast and control fibroblast lines were cultured in Minimum Essential Medium alpha media (MEMα, no nucleosides, Gibco), supplemented with 10% FBS and 1% P/S. These patient-derived fibroblast lines were previously characterized in Burda et al. 2015. For the experiments using dialyzed FBS, the dialyzed FBS was purchased from Gibco and added to IMDM at a final concentration of 10%. All the cell lines were incubated in 5% CO2 atmosphere at 37° C.

In the case of `Cn1c(=O)c2c(nc(N3CCN(C(=O)N4CCC(CN5CCN(c6ccc7c(c6)C(=O)N(C6CCC(=O)NC6=O)C7=O)CC5)CC4)CC3)n2Cc2nnc(-c3ccc(Cl)c(Cl)c3)o2)n(C)c1=O` (stereo not drawn) [dNUDT5, 7-((5-(3,4-dichlorophenyl)-1,3,4-oxadiazol-2-yl)methyl)-8-(4-(4-((4-(2-(2,6-dioxopiperidin-3-yl)-1,3-dioxoisoindolin-5-yl)piperazin-1-yl)methyl)piperidine-1-carbonyl)piperazin-l-yl)-1,3-dimethyl-3,7-dihydro-1H-purine-2,6-dione], the “effect on viability of WT cells” value (WT HAP1 cells) was “did not affect the viability of WT cells”, the DC50 (NUDT5 [1]) was 0.3 nM and the “concentration of maximum rescue of cell viability” value (MTHFD1^K56R cells; adenosine supplementation) was 100 nM. For the same compound, the “effect on adenosine toxicity / viability” value (MTHFD1^K56R cells; adenosine-containing media) was “prevented adenosine toxicity”, the “rescue of 6-TG toxicity” value (HAP-1 cells) was “able to rescue 6-TG toxicity” and the “NUDT5 degradation at 100 nM, 20 h (%)” value (NUDT5 [2]; 100 nM, 20 h) was 96%. For the same compound, the “concentration beyond which degradation efficiency declines (hook effect)” value (NUDT5 [2]; HEK293 and HAP-1 cells) was over 300 nM, the DC50 (NUDT5 [2]; HEK293 cells) was 0.5 nM and the “dependence of NUDT5 degradation (rescue experiments)” value (NUDT5 [2]; competition with TH5427, MLN4924, MG132, HEK293 cells) was “E3 ligase- and proteasome-dependent”. For the same compound, the “amount of NUDT5 interacting with PPAT” value (NUDT5-PPAT interaction) was “strongly reduced the amount of NUDT5 interacting with PPAT” and the “effect on adenosine-mediated toxicity” value [3] was “reverses adenosine-mediated toxicity”.
